From patent publication US10765114B2, “4-amino-6-(pyridyl and 2-substitutedphenyl)-picolinates and 6-amino-2-(pyridyl and 2-substitutedphenyl)-pyrimidine-4-carboxylates and their use as herbicides” (Dow AgroSciences LLC, priority 2013, dated 2020)
Read-outs that look alike come from different tables or passages of the source.

What was measured:
[1] = system: Key Grass and Sedge Weeds as well as Grass Crops; assay: Post-Emergent Test II (Table 6); type: in vivo; settings: post-emergence, 336 h, 14 days after application; for pest or weed control at 70 g/ha: 70 g ai/ha; for pest or weed control at 140 g/ha: 140 g ai/ha
How it was run: (§1)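 Post-emergence greenhouse spray, 1st-2nd true leaf stage; track sprayer, 187 L/ha; acetone/DMSO stock diluted in aqueous acetone/IPA/DMSO with Atplus 411F and Triton X-155; rates 1× to 1/16×; subirrigated; visual injury 0 (none) to 100% (complete kill) at 14 days.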

[2] = system: Key Broadleaf Weed and Crop Species; assay: Post-Emergent Test II (Table 5); type: in vivo; settings: post-emergence, 336 h; for pest or weed control at 70 g/ha: application rate 70 (kg ai/ha; footnote: g ai/ha); for pest or weed control at 140 g/ha: application rate 140 (kg ai/ha; footnote: g ai/ha)
How it was run: as §1

[3] = CYPSS, read-out: Visual Growth Reduction (%) 14 Days After Application CYPSS
[4] = DIGSA: crabgrass (Digitaria sanguinalis), read-out: Visual Growth Reduction (%) 14 Days After Application DIGSA
[5] = ECHSS, read-out: Visual Growth Reduction (%) 14 Days After Application ECHSS
[6] = ORYSS (crop), read-out: Visual Growth Reduction (%) 14 Days After Application ORYSS
[7] = SETFA: giant foxtail (Setaria faberi), read-out: Visual Growth Reduction (%) 14 Days After Application SETFA
[8] = SORVU: grain sorghum (Sorghum vulgare), read-out: Visual Growth Reduction (%) 14 Days After Application SORVU
[9] = TRZSS (crop), read-out: Visual Growth Reduction (%) 14 Days After Application TRZSS
[10] = ZEAMX: maize, corn (Zea mays), read-out: Visual Growth Reduction (%) 14 Days After Application ZEAMX
[11] = Abutilon theophrasti, ABUTH: velvetleaf (Abutilon theophrasti), read-out: Visual Growth Reduction (%) 14 Days After Application ABUTH
[12] = Amaranthus retroflexus, AMARE: redroot pigweed (Amaranthus retroflexus), read-out: Visual Growth Reduction (%) 14 Days After Application AMARE
[13] = Brassica napus, BRSSS: oilseed rape, canola (Brassica napus), read-out: Visual Growth Reduction (%) 14 Days After Application BRSSS
[14] = Chenopodium album, CHEAL: lambsquarters (Chenopodium album), read-out: Visual Growth Reduction (%) 14 Days After Application CHEAL
[15] = Euphorbia heterophylla, EPHHL: wild poinsettia (Euphorbia heterophylla), read-out: Visual Growth Reduction (%) 14 Days After Application EPHHL
[16] = Helianthus annuus, HELAN: sunflower (Helianthus annuus), read-out: Visual Growth Reduction (%) 14 Days After Application HELAN
[17] = Viola tricolor, VIOTR: wild pansy (Viola tricolor), read-out: Visual Growth Reduction (%) 14 Days After Application VIOTR

Row | Structure (SMILES) | pest or weed control at 70 g/ha [1, 3] | pest or weed control at 140 g/ha [1, 3] | pest or weed control at 70 g/ha [1, 4] | pest or weed control at 140 g/ha [1, 4] | pest or weed control at 70 g/ha [1, 5] | pest or weed control at 140 g/ha [1, 5] | pest or weed control at 70 g/ha [1, 6] | pest or weed control at 140 g/ha [1, 6] | pest or weed control at 70 g/ha [1, 7] | pest or weed control at 140 g/ha [1, 7] | pest or weed control at 70 g/ha [1, 8] | pest or weed control at 140 g/ha [1, 8] | pest or weed control at 70 g/ha [1, 9] | pest or weed control at 140 g/ha [1, 9] | pest or weed control at 70 g/ha [1, 10] | pest or weed control at 140 g/ha [1, 10] | pest or weed control at 70 g/ha [2, 11] | pest or weed control at 140 g/ha [2, 11] | pest or weed control at 70 g/ha [2, 12] | pest or weed control at 140 g/ha [2, 12] | other results
1 | Nc1c(F)c(-c2ccc(C3CC3)nc2)nc(C(=O)O)c1Cl [Compound 36, 4-amino-5-chloro-6′-cyclopropyl-3-fluoro-[2,3′-bipyridine]-6-carboxylic acid] | 95 to 100% | 95 to 100% | 60 to 74% | 75 to 84% | 85 to 94% | 85 to 94% | 0 to 29% | 0 to 29% | 95 to 100% | 95 to 100% | 60 to 74% | 60 to 74% | 30 to 44% | 45 to 59% | 95 to 100% | 95 to 100% | 85 to 94% | 95 to 100% | 95 to 100% | 95 to 100% | pest or weed control at 70 g/ha [2, 13]: 85 to 94%; pest or weed control at 140 g/ha [2, 13]: 95 to 100%; pest or weed control at 70 g/ha [2, 14]: 95 to 100%; pest or weed control at 140 g/ha [2, 14]: 95 to 100%; pest or weed control at 70 g/ha [2, 15]: 95 to 100%; pest or weed control at 140 g/ha [2, 15]: 95 to 100%; pest or weed control at 70 g/ha [2, 16]: 95 to 100%; pest or weed control at 140 g/ha [2, 16]: 95 to 100%; pest or weed control at 70 g/ha [2, 17]: 0 to 29%; pest or weed control at 140 g/ha [2, 17]: 0 to 29%; melting point: 260 to 265 °C (dec.)
2 | COC(=O)c1nc(-c2c(F)cc(Cl)c(F)c2C)cc(N)c1Cl [Compound 38, methyl 4-amino-3-chloro-6-(4-chloro-3,6-difluoro-2-methylphenyl)picolinate] | 0 to 29% | 0 to 29% | 0 to 29% | 0 to 29% | 0 to 29% | 0 to 29% | 0 to 29% | 0 to 29% | 0 to 29% | 0 to 29% | 0 to 29% | 0 to 29% | 45 to 59% | 60 to 74% | 0 to 29% | 0 to 29% | 95 to 100% | 95 to 100% | 95 to 100% | 95 to 100% | pest or weed control at 70 g/ha [2, 13]: 95 to 100%; pest or weed control at 140 g/ha [2, 13]: 95 to 100%; pest or weed control at 70 g/ha [2, 14]: 85 to 94%; pest or weed control at 140 g/ha [2, 14]: 95 to 100%; pest or weed control at 70 g/ha [2, 15]: 30 to 44%; pest or weed control at 140 g/ha [2, 15]: 45 to 59%; pest or weed control at 70 g/ha [2, 16]: 75 to 84%; pest or weed control at 140 g/ha [2, 16]: 95 to 100%; pest or weed control at 70 g/ha [2, 17]: 75 to 84%; pest or weed control at 140 g/ha [2, 17]: 85 to 94%; melting point: 144 to 146 °C
3 | COC(=O)c1nc(-c2ccc(C(F)(F)F)nc2)nc(N)c1OC [Compound 43, methyl 6-amino-5-methoxy-2-(6-(trifluoromethyl)pyridin-3-yl)pyrimidine-4-carboxylate] | 0 to 29% | 60 to 74% | 30 to 44% | 60 to 74% | 0 to 29% | 0 to 29% | 0 to 29% | 0 to 29% | 0 to 29% | 0 to 29% | 0 to 29% | 0 to 29% | 0 to 29% | 0 to 29% | 0 to 29% | 0 to 29% | 0 to 29% | 0 to 29% | 30 to 44% | 60 to 74% | pest or weed control at 70 g/ha [2, 13]: 30 to 44%; pest or weed control at 140 g/ha [2, 13]: 45 to 59%; pest or weed control at 70 g/ha [2, 14]: 0 to 29%; pest or weed control at 140 g/ha [2, 14]: 0 to 29%; pest or weed control at 70 g/ha [2, 15]: 30 to 44%; pest or weed control at 140 g/ha [2, 15]: 60 to 74%; pest or weed control at 70 g/ha [2, 16]: 0 to 29%; pest or weed control at 140 g/ha [2, 16]: 30 to 44%; pest or weed control at 70 g/ha [2, 17]: 0 to 29%; pest or weed control at 140 g/ha [2, 17]: 0 to 29%; melting point: 148 to 149 °C
